Columns and labels:
[1] = tested on: non-sterile calcium carbonate slurry (H60), environmental bacteria; assay: Example 3 preservation efficacy: H60 slurry with industrial grade urea solution, non-sterile H60 inoculum, TVC; assay type: cell-based; conditions: industrial grade urea 5.5%, calcium carbonate 69%, water 25.5% w/w, 30° C.
Protocol: (§1) All quoted bacterial counts (Total viable counts (TVC) values), unless otherwise indicated, are given in cfu/ml and determined after at least 2 days following plate-out and incubation at 30° C. and in accordance with the counting method described in “Bestimmung von aerobe mesophilen Keimen”, Schweizerisches Lebensmittelbuch, chapter 56, section 7.01, edition of 1985, revised version of 1988.
(§2) Unless otherwise stated, per tryptic soy agar plate (TSA, prepared using BD 236950) 0.1 ml of a solution or suspension is plated. Counts from 10000 cfu/ml to 99999 cfu/ml are reported as >1E4 cfu/ml. Counts from 100000 cfu/ml to 999999 cfu/ml are reported as >1E5 cfu/ml. Counts above 1000000 cfu/ml are reported as >1E6 cfu/ml.
Non-sterile slurries (H60 or H90) contain contamination with environmental bacteria at a TVC>100000 cfu/ml. The contamination originates spontaneously and a bacterial burden of at least>100000 cfu/ml is confirmed prior use as inoculum by TVC. The following bacterial species are known to occur, as identified by 16S RNA sequencing or MALDI-TOF-MS analysis: Rhizobium radiobacter, Brevundimonas intermedia, Brevundimonas diminiuta, Sphingomonas sp., Pseudomonas stutzeri, Pseudomonas sp., Comomonas aquatic.
50 g sterile calcium carbonate slurry (H60) with a solid content of 77.3 wt.-%, based on the total weight of the H60 slurry is supplemented with industrial grade 50% (w/w) urea solution (Yara Canda Inc.) or water to different final concentrations. The industrial grade contained natural resident (i.e. bacteria in a non-growing state) bacteria. The bacterial of the industrial urea burden is 5 cfu/3 ml as determined by TVC. The species are identified by characterizing the grown colonies from the TVC by 16 S RNA sequencing, known to the person skilled in the art.
The samples are further artificially inoculated with 1 ml non-sterile calcium carbonate slurry (H60), 1 ml non-sterile calcium carbonate slurry (H90), 0.02 ml overnight culture of Escherichia coli (DSMZ 46295) and 0.02 ml overnight culture Pseudomonas putida. The control sample are not inoculated. […]

Pseudomonas putida = assay: Example 2 preservation efficacy: H60 slurry with 61 wt.-% urea solution, P. putida inoculum, TVC; assay type: cell-based; conditions: 30° C.
Protocol: as §1, §2
(§3) For the preparation of inoculum with a single bacterial species (for example Escherichia coli (DSMZ 46295) or Pseudomonas putida), bacteria are spread onto Tryptic soy broth agar (BD, 236950) by dilution streaking followed by incubation at 30° C. for at least 24 h until colonies appear. Overnight cultures are generated by inoculation of 3 ml Tryptic soy broth (Fluka 22092) with a single colony followed incubation with agitation at […] at 30° C. for 24 h.
(§4) 50 g sterile slurry H60 with a solid content of 76.5 wt.-%, based on the total weight of the H60 slurry is supplemented with different amounts of 61 wt.-% urea solution or water. The samples are then inoculated with 1 ml non-sterile calcium carbonate slurry (H60), 1 ml non-sterile calcium carbonate slurry (H90), 0.02 ml overnight culture of Escherichia coli (DSMZ 46295) and 0.02 ml overnight culture of Pseudomonas putida. The control samples are not inoculated. Samples are incubated at 30° C. and the TVC and pH are determined at various time points (0 day, 1 day, 4, days, 8 days, 9 days and/or 13 days).

[2] = tested on: Escherichia coli (DSMZ 46295); assay: Example 2 preservation efficacy: H60 slurry with 61 wt.-% urea solution, E. coli inoculum, TVC; assay type: cell-based
Protocol: as §1, §2, §3, §4

[3] = Example 5: addition of dry urea to H60 slurry, viscosity and stability of the product; assay type: physicochemical; conditions: 2.68 wt.-% urea and 73 wt.-% calcium carbonate
Protocol: The Brookfield viscosity is measured by a Brookfield DV-III Ultra viscometer at 20° C.±3° C. at 100 rpm using an LV-3 spindle and is specified in mPa·s. Once the spindle has been inserted into the sample, the measurement is started with a constant rotating speed of 100 rpm.
1 kg calcium carbonate slurry (H60) with a solid content of 75 wt.-%, based on the total weight of the H60 slurry is stirred at approximately 500 rotations per minute (rpm) and 27.5 g dry urea is added slowly during agitation, leading to 2.68 wt.-% urea and 73 wt.-% calcium carbonate, based on the total weight of the obtained slurry. The blend is further mixed for 30 minutes at slow speed (<500 rpm).

[4] = tested on: total viable bacteria, not inoculated; assay: Example 2 preservation efficacy: H60 slurry with 61 wt.-% urea solution, control samples not inoculated, TVC; assay type: cell-based; conditions: inoculum none, 30° C.
Protocol: as §1, §2, §4

[5] = Table 2, urea 2.75%, calcium carbonate 73.1%, water 24.15% w/w
[6] = Table 2, urea 7.6%, calcium carbonate 67.1%, water 25.3% w/w
[7] = Table 3, urea 0.65%, calcium carbonate 75.7%, water 23.65% w/w
[8] = Table 3, urea 2.75%, calcium carbonate 73.1%, water 24.15% w/w
[9] = Table 2, urea 2.75%, calcium carbonate 73.1%, water 24.15% w/w, inoculum E. coli, 30° C.
[10] = Table 2, urea 7.6%, calcium carbonate 67.1%, water 25.3% w/w, inoculum E. coli, 30° C.
[11] = Table 3, urea 0.65%, calcium carbonate 75.7%, water 23.65% w/w, inoculum E. coli, 30° C.
[12] = Table 3, urea 1.28%, calcium carbonate 74.9%, water 23.82% w/w, inoculum E. coli, 30° C.
[13] = Table 3, urea 2.75%, calcium carbonate 73.1%, water 24.15% w/w, inoculum E. coli, 30° C.
[14] = Table 3, urea 1.28%, calcium carbonate 74.9%, water 23.82% w/w

NC(N)=O [urea]
No clumps were formed: formation of clumps after addition of dry urea [3]
at least 13 days: preservation of calcium carbonate slurries from bacterial growth, duration ([2]; high urea concentrations, summary of tables 2 and 3, all inocula)
<100 cfu/ml: TVC cfu/ml Day 4 [1] | TVC cfu/ml Day 8 [1] | TVC cfu/ml Day 11 [1] | TVC cfu/ml Day 13 [1] | TVC cfu/ml Day 1 (Pseudomonas putida; [5]) | TVC cfu/ml Day 4 (Pseudomonas putida; [5]) | TVC cfu/ml Day 13 (Pseudomonas putida; [5]) | TVC cfu/ml Day 1 (Pseudomonas putida; [6]) | TVC cfu/ml Day 4 (Pseudomonas putida; [6]) | TVC cfu/ml Day 8 (Pseudomonas putida; [6]) | TVC cfu/ml Day 13 (Pseudomonas putida; [6]) | TVC cfu/ml Day 1 (Pseudomonas putida; [8]) | TVC cfu/ml Day 4 (Pseudomonas putida; [8]) | TVC cfu/ml Day 9 (Pseudomonas putida; [8]) | TVC cfu/ml Day 1 [2, 9] | TVC cfu/ml Day 4 [2, 9] | TVC cfu/ml Day 13 [2, 9] | TVC cfu/ml Day 1 [2, 10] | TVC cfu/ml Day 4 [2, 10] | TVC cfu/ml Day 8 [2, 10] | TVC cfu/ml Day 1 [2, 12] | TVC cfu/ml Day 4 [2, 12] | TVC cfu/ml Day 1 [2, 13] | TVC cfu/ml Day 4 [2, 13] | TVC cfu/ml Day 9 [2, 13] | TVC cfu/ml Day 4 [4, 5] | TVC cfu/ml Day 8 [4, 5] | TVC cfu/ml Day 13 [4, 5] | TVC cfu/ml Day 1 ([4]; Table 2, urea 2.75%, calcium carbonate 73.1%, water 24.15% w/w, detection limit 100 cfu/ml) | TVC cfu/ml Day 1 [4, 6] | TVC cfu/ml Day 4 [4, 6] | TVC cfu/ml Day 8 [4, 6] | TVC cfu/ml Day 13 [4, 6] | TVC cfu/ml Day 4 [4, 7] | TVC cfu/ml Day 1 ([4]; Table 3, urea 0.65%, calcium carbonate 75.7%, water 23.65% w/w, detection limit 100 cfu/ml) | TVC cfu/ml Day 1 [4, 14] | TVC cfu/ml Day 4 [4, 14] | TVC cfu/ml Day 1 [4, 8] | TVC cfu/ml Day 4 [4, 8] | TVC cfu/ml Day 9 [4, 8]
500 cfu/ml: TVC cfu/ml Day 8 [2, 9]
remains stable: stability of the product ([3]; 7 days at room temperature and 40° C.)
>1E5 cfu/ml: TVC cfu/ml Day 1 (Pseudomonas putida; [7]) | TVC cfu/ml Day 4 (Pseudomonas putida; [7]) | TVC cfu/ml Day 1 [2, 11] | TVC cfu/ml Day 4 [2, 11]
100 cfu/ml: TVC cfu/ml Day 8 (Pseudomonas putida; [5]) | TVC cfu/ml Day 13 [2, 10]
does not increase: viscosity after addition of dry urea [3]
